Measured values taken from ChEMBL document CHEMBL1201862, “PubChem BioAssay data set” (2004).
Several values for one entry are separate records, joined by “and”; a condition that tells them apart may be missing. Equal entries are not always repeated. Structures can show the parent of a compound that is named as a salt.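 Grown in 96-well plates, cells were treated for 48 hours with each compound at five concentrations. Insufficient inhibition: endpoint recorded as highest concentration tested. Abbreviation: GI50, concentration required for 50% inhibition of growth.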 Activity calls are given as the source filed them. No stated cut-off is given here; in the data, active = GI50 up to about 1.1 µM and inactive = higher.

How the values were obtained:
Experiment in all cases: NCI tumour cell line growth inhibition, 48 h
COLO 205 = tested on: COLO 205
SF-539 = tested on: SF-539
RXF 393 = tested on: RXF 393
NCI/ADR-RES = tested on: NCI/ADR-RES
UACC-257 = tested on: UACC-257
A498 = tested on: A498
M14 = tested on: M14
HT-29 = tested on: HT-29
ACHN = tested on: ACHN
UO-31 = tested on: UO-31
NCI-H460 = tested on: NCI-H460
MOLT-4 = tested on: MOLT-4
CCRF-CEM = tested on: CCRF-CEM
HCC 2998 = tested on: HCC 2998
IGROV-1 = tested on: IGROV-1
OVCAR-4 = tested on: OVCAR-4
KM12 = tested on: KM12
CAKI-1 = tested on: CAKI-1
NCI-H522 = tested on: NCI-H522
RPMI-8226 = tested on: RPMI-8226

| Compound | GI50 (COLO 205) | GI50 (SF-539) | GI50 (RXF 393) | GI50 (NCI/ADR-RES) | GI50 (UACC-257) | GI50 (A498) | GI50 (M14) | GI50 (HT-29) | GI50 (ACHN) | GI50 (UO-31) | GI50 (NCI-H460) | GI50 (MOLT-4) | GI50 (CCRF-CEM) | GI50 (HCC 2998) | GI50 (IGROV-1) | GI50 (OVCAR-4) | GI50 (KM12) | GI50 (CAKI-1) | GI50 (NCI-H522) | GI50 (RPMI-8226) |
| --- | --- | --- | --- | --- | --- | --- | --- | --- | --- | --- | --- | --- | --- | --- | --- | --- | --- | --- | --- | --- |
| CC(C)N1CCCOC(c2ccc([N+](=O)[O-])cc2)O1 (stereo unspecified) | > 100 µM (inactive) | > 100 µM (inactive) | > 100 µM (inactive) | > 100 µM (inactive) | > 100 µM (inactive) | > 100 µM (inactive) | > 100 µM (inactive) | > 100 µM (inactive) | > 100 µM (inactive) | > 100 µM (inactive) | > 100 µM (inactive) | > 100 µM (inactive) | > 100 µM (inactive) | > 100 µM (inactive) | > 100 µM (inactive) | > 100 µM (inactive) | > 100 µM (inactive) | > 100 µM (inactive) | > 100 µM (inactive) | – |
| COc1cc(C[S+]([O-])c2ccc(O)cc2)cc(OC)c1OC (stereo unspecified) | > 100 µM (inactive) | > 100 µM (inactive) | > 100 µM (inactive) | > 100 µM (inactive) | > 100 µM (inactive) | > 100 µM (inactive) | > 100 µM (inactive) | > 100 µM (inactive) | > 100 µM (inactive) | 66.2 µM (inactive) | > 100 µM (inactive) | > 100 µM (inactive) | > 100 µM (inactive) | – | > 100 µM (inactive) | – | > 100 µM (inactive) | > 100 µM (inactive) | > 100 µM (inactive) | > 100 µM (inactive) |
| CC(=O)N1C(=O)/C(=C\C(=O)c2ccc([N+](=O)[O-])cc2)c2ccccc21 | 18.8 µM (inactive) | 14.4 µM (inactive) | 29.1 µM (inactive) | 44.4 µM (inactive) | 19 µM (inactive) | > 100 µM (inactive) | 31 µM (inactive) | 17.8 µM (inactive) | 15.3 µM (inactive) | 19 µM (inactive) | 20.1 µM (inactive) | 19.5 µM (inactive) | 3.94 µM (inactive) | 19.3 µM (inactive) | 21.4 µM (inactive) | 14.4 µM (inactive) | 19.6 µM (inactive) | 22.5 µM (inactive) | 15.7 µM (inactive) | – |
| O=C(O)CNC(=O)C(CSC(=O)OCC1c2ccccc2-c2ccccc21)NC(=O)CCC(NC(=O)OCC1c2ccccc2-c2ccccc21)C(=O)O (stereo unspecified) | 16.5 µM (inactive) | 16.3 µM (inactive) | 18.7 µM (inactive) | 17.5 µM (inactive) | > 100 µM (inactive) | – | > 100 µM (inactive) | – | 18.4 µM (inactive) | 18.7 µM (inactive) | 18.6 µM (inactive) | 20.1 µM (inactive) | 20.2 µM (inactive) | > 100 µM (inactive) | 13.1 µM (inactive) | 15 µM (inactive) | – | 4.57 µM (inactive) | 1.57 µM (inactive) | 21.5 µM (inactive) |
| CC(=O)Nc1ccc(CNc2cc(=O)n(C)c(=O)[nH]2)cc1 | > 100 µM (inactive) | > 100 µM (inactive) | > 100 µM (inactive) | > 100 µM (inactive) | > 100 µM (inactive) | – | > 100 µM (inactive) | > 100 µM (inactive) | > 100 µM (inactive) | > 100 µM (inactive) | > 100 µM (inactive) | > 100 µM (inactive) | > 100 µM (inactive) | > 100 µM (inactive) | > 100 µM (inactive) | > 100 µM (inactive) | > 100 µM (inactive) | > 100 µM (inactive) | > 100 µM (inactive) | > 100 µM (inactive) |
| O=[N+]([O-])c1cc(-c2ccc([As](=O)(O)O)cc2)ccc1[As](=O)(O)O | – | – | > 100 µM (inactive) | > 100 µM (inactive) | > 100 µM (inactive) | > 100 µM (inactive) | > 100 µM (inactive) | > 100 µM (inactive) | > 100 µM (inactive) | > 100 µM (inactive) | > 100 µM (inactive) | > 100 µM (inactive) | > 100 µM (inactive) | – | > 100 µM (inactive) | > 100 µM (inactive) | > 100 µM (inactive) | > 100 µM (inactive) | > 100 µM (inactive) | > 100 µM (inactive) |
| COc1cc(OC)c2c(=O)c(OC)c(-c3ccc4c(c3)OCO4)oc2c1 | > 100 µM (inactive) | 18.1 µM (inactive) | 28.1 µM (inactive) | 46.9 µM (inactive) | > 100 µM (inactive) | 15.6 µM (inactive) | > 100 µM (inactive) | > 100 µM (inactive) | 33.6 µM (inactive) | > 100 µM (inactive) | > 100 µM (inactive) | > 100 µM (inactive) | > 100 µM (inactive) | > 100 µM (inactive) | 22.1 µM (inactive) | > 100 µM (inactive) | > 100 µM (inactive) | 21 µM (inactive) | 38.3 µM (inactive) | – |
| O=C(O)c1ccc(Nc2nc3cc(C(F)(F)F)ccc3nc2C(=O)O)cc1 | > 100 µM (inactive) | – | > 100 µM (inactive) | > 100 µM (inactive) | – | > 100 µM (inactive) | – | > 100 µM (inactive) | > 100 µM (inactive) | > 100 µM (inactive) | > 100 µM (inactive) | > 100 µM (inactive) | – | > 100 µM (inactive) | > 100 µM (inactive) | > 100 µM (inactive) | > 100 µM (inactive) | > 100 µM (inactive) | > 100 µM (inactive) | – |
| NC(CNO)C(=O)O (stereo unspecified) | > 100 µM (inactive) | > 100 µM (inactive) | > 100 µM (inactive) | > 100 µM (inactive) | > 100 µM (inactive) | > 100 µM (inactive) | > 100 µM (inactive) | > 100 µM (inactive) | > 100 µM (inactive) | > 100 µM (inactive) | > 100 µM (inactive) | – | – | – | > 100 µM (inactive) | > 100 µM (inactive) | > 100 µM (inactive) | > 100 µM (inactive) | > 100 µM (inactive) | > 100 µM (inactive) |
| Cc1cn(CC2=NCC(C)N2)c(=O)[nH]c1=O (stereo unspecified) | > 100 µM (inactive) | – | > 100 µM (inactive) | > 100 µM (inactive) | > 100 µM (inactive) | > 100 µM (inactive) | > 100 µM (inactive) | > 100 µM (inactive) | > 100 µM (inactive) | > 100 µM (inactive) | > 100 µM (inactive) | > 100 µM (inactive) | – | > 100 µM (inactive) | > 100 µM (inactive) | – | – | – | > 100 µM (inactive) | > 100 µM (inactive) |
| Cc1ccc(C(=O)/C=C2\Nc3ccccc3S\C2=N\CS(=O)(=O)c2ccc(C)cc2)cc1 | > 10 µM (inactive) | > 10 µM (inactive) | – | > 10 µM (inactive) | > 10 µM (inactive) | – | > 10 µM (inactive) | > 10 µM (inactive) | > 10 µM (inactive) | – | – | > 10 µM (inactive) | > 10 µM (inactive) | > 10 µM (inactive) | > 10 µM (inactive) | 4.02 µM (inactive) | > 10 µM (inactive) | > 10 µM (inactive) | 5.38 µM (inactive) | > 10 µM (inactive) |
| CCN(CC)c1nnc(CCCCCCCCc2nnc(N(CC)CC)o2)o1 | > 100 µM (inactive) | > 100 µM (inactive) | > 100 µM (inactive) | > 100 µM (inactive) | > 100 µM (inactive) | > 100 µM (inactive) | > 100 µM (inactive) | > 100 µM (inactive) | > 100 µM (inactive) | > 100 µM (inactive) | > 100 µM (inactive) | > 100 µM (inactive) | > 100 µM (inactive) | – | > 100 µM (inactive) | > 100 µM (inactive) | > 100 µM (inactive) | > 100 µM (inactive) | > 100 µM (inactive) | – |
| O=C1C=CC(=O)c2c(NCC3CC3)ccc(NCC3CC3)c21 | 19.7 µM (inactive) | 25.5 µM (inactive) | – | 64.1 µM (inactive) | 29.3 µM (inactive) | 60.5 µM (inactive) | 18.5 µM (inactive) | 32.2 µM (inactive) | 39.9 µM (inactive) | 75.2 µM (inactive) | 60.8 µM (inactive) | 11.8 µM (inactive) | – | 57.5 µM (inactive) | 47.9 µM (inactive) | – | 33.6 µM (inactive) | – | 1.05 µM (active) | 17.1 µM (inactive) |
| CN(c1cn(C2CC[C@@H](CO)O2)c(=O)[nH]c1=O)C1CCCCC1 (stereo partly specified) | > 100 µM (inactive) | > 100 µM (inactive) | > 100 µM (inactive) | > 100 µM (inactive) | – | > 100 µM (inactive) | > 100 µM (inactive) | > 100 µM (inactive) | > 100 µM (inactive) | > 100 µM (inactive) | > 100 µM (inactive) | > 100 µM (inactive) | > 100 µM (inactive) | > 100 µM (inactive) | > 100 µM (inactive) | > 100 µM (inactive) | > 100 µM (inactive) | – | > 100 µM (inactive) | > 100 µM (inactive) |
| CN(C)CCCN1c2ccccc2Sc2ccc(C(F)(F)F)cc21 [TRIFLUPROMAZINE HYDROCHLORIDE] | 16.3 µM (inactive) and 16.7 µM (inactive) | 15.2 µM (inactive) and 19.1 µM (inactive) | 13 µM (inactive) and 16 µM (inactive) | 17.2 µM (inactive) | 13.5 µM (inactive) and 15.3 µM (inactive) | 16.6 µM (inactive) | – | 11.4 µM (inactive) | 14.9 µM (inactive) and 15.4 µM (inactive) | 15.5 µM (inactive) and 14.3 µM (inactive) | 16.4 µM (inactive) and 15 µM (inactive) | 17.7 µM (inactive) | 20.3 µM (inactive) and 16.1 µM (inactive) | – | 15.9 µM (inactive) and 15.6 µM (inactive) | 14.8 µM (inactive) | 17.2 µM (inactive) and 15.1 µM (inactive) | 11.8 µM (inactive) | 17.9 µM (inactive) and 18.1 µM (inactive) | 21.2 µM (inactive) and 14.9 µM (inactive) |
